From patent US20250255945A1, “CLICK CHEMISTRY HLA POLYPEPTIDES” (IMMUNEO Therapeutics GmbH, priority 2024, published 2025)

Legend:
[1] = system: peripheral blood mononuclear cells (PBMCs); assay: IFN-γ ELISPOT assay (ex vivo) with subject PBMCs; assay type: cell-based, human; conditions: for Elispot [nspots/pM]: Table 6, further HTAPPs, HTAPP-DACPs and reference sequences; for response rate in ELIspot on addition of a DACP: Example 3 subject PBMCs, compared to the HTAPP without DACP
Description: IFNγ ELISpot analysis (for protocol see A. Lalvani, R. Brookes, S. Hambleton, W. J. Britton, A. V. S. Hill, A. J. McMichael, J Exp Med 1997; 186 (6): 859-865) was performed ex vivo (without further in vitro culturing for expansion) using PBMCs depleted of CD4+ and enriched for CD8+ T cells (CD8+ effectors), or depleted of CD8+ and enriched for CD4+ T cells (CD4+ effectors). Tests were performed in duplicate and with a positive and negative control, Multiscreen filter plates (Merck Millipore) pre-coated with IFNγ-specific antibodies (ELISpotPro kit, Mabtech). 267.000 Cells were used per plate. Plates were scanned using an AID Classic Robot ELISPOT Reader and analyzed by AID ELISPOT 7.0 software (AID Autoimmun Diagnostika). Antigen Peptides (except negative and positive control group) were done in duplicates, spot counts were taken as mean values of each duplicate.
The immunogenicity of each of the six peptides was analyzed by IFN-γ secretion by subject peripheral blood mononuclear cells (PBMCs) using ELIspot assay. […]
The immunogenicity of each peptide was assessed in peripheral blood mononuclear cells (PBMCs) from patients and using the IFN-γ-ELISPOT assay. ELISPOT results were considered positive if the number of spots was at least 2-fold higher than the negative control (medium) and at least 50 spots were detected. […] We also tested the effect of delivery aiding peptides (DACP-1) and peptide extension by overlapping tandemization and tandemization on the immunogenicity of the epitopes.

[2] = system: prostate cancer with bone metastases; assay: Case study Example 4: immunization of a subject with prostate cancer and bone metastases with PrCa-PC1/PrCa-PC2; assay type: in vivo, human; conditions: after 70 days
Description: • Subject: A person • Date of Admission: Oct. 4, 2022 • Complaints: Urinary urgency, interrupted urination, nocturia, and erectile dysfunction
• PSA Level: 99.77 ng/mL (See FIG. 9A) • MRI Examination: Moderately enlarged prostate with extensive, organ-crossing, and infiltrating prostate cancer on the left side. • PSMA-PET Examination: Involvement of the middle gland and apex on the left periphery, infiltrating the left seminal vesicles. No PSMA positive lymph node metastases found, but sclerotic bone metastases reported (See FIG. 9B). • First Biopsies: Taken from bone metastases in the area of the lateral mass of the left sacrum. Pathological assessment confirmed malignant prostatic origin.
(§1) • Step (a): the pharmaceutical composition comprising the 12 synthetic HLA tumor antigen polypeptides and XS15 as adjuvant were synthesized as chemical peptides, • Step (b): the 12 HLA tumor antigen polypeptides were mixed in 25% DMSO/H2O application solution and divided multiple vial units of 1 nil each, Dose per HLA tumor antigen polypeptide: 300 μg
as §1, with “7” for “12”, “ml” for “nil”, “μg […]” for “μg”

Molecule	Elispot [nspots/pM] [1]	response rate in ELIspot on addition of a DACP [1]	further results
83 (QSYPGSASLAAYSGMPRISKLRQIKIWFQNRRMKWKK) [compound 83]	367,5 nspots/pM		
84 (PPSNATAETQPIPQKAAYLEAIFLRDWDSLYSHDLDTSADS) [compound 84]	197,5 nspots/pM		
CC(O)(CS(=O)(=O)c1ccc(F)cc1)C(=O)Nc1ccc(C#N)c(C(F)(F)F)c1 (stereo not drawn) [Bicalutamide]			tolerability (discontinuation) [2]: side effects
KKIRKPRTIYSSLQLQAAAYGIYDALFDIESKVDPSK [SEQ-ID-No.: 8]			increase in Elispot count ([1]; tandem peptide in relation to the more immunogenic single HTAP (SEQ-ID-No.: 77 / 78)): more than 237%
KLVVVGAVGVGKSALTIRQIKIWFQNRRMKWKK [SEQ-ID-No.: 18]		increase in the response rate	
LQEFRRFQDPGRIVAIVRQIKIWFQNRRMKWKK [SEQ-ID-No.: 20]		increase in the response rate	
